Measured values: US5216001A, “Indole derivatives” (H. Lunbeck A/S, priority 1990, dated 1993)
pIC50: −log10 of the molar value. Like-named read-outs stand apart in the source and are kept apart here.

Key:
[1] = biological target: T1, serotonin S2 (5-HT2) receptors (Rattus norvegicus, UniProt P14842); assay: inhibition of 3H-ketanserin binding to serotonin S2 (5-HT2) receptors in rat cortex in vitro; conditions: 3H-ketanserin 0.5 nM, rat cortex membranes, read-out: Binding IC50, 3H Ket.
T1 construct: cortical tissue is dissected and weighed; from tissue; host or cells: cerebral cortex membranes of male Wistar (Mol:Wist) rats
Method: Method in Hyttel, Pharmacology & Toxicology, 61, 126-129. 1987.
Male Wistar (Mol:Wist) rats (125-250 g) are sacrifices and cortical tissue is dissected and weighed. The tissue is homogenized (Ultra Turrax, 10 sec.) in 10 ml of ice-cold 50 mM tris buffer pH 7.7 (at 25° C.). The centrifuge glassware used in this step has been rinsed by sonication for 10 min. in ethanol. The homogenate is centrifuged twice at 20,000 g for 10 min. at 4° C. with rehomogenization of the pellet in 10 ml ice-cold buffer. The final pellet is homogenized in 500 vol (w/v) ice-cold buffer.
Incubation tubes kept on ice in triplicate receive 100 μl of drug solution in water (or water for total binding) and 2000 μl of tissue suspension (final tissue content corresponds to 4 mg original tissue). […] After incubation for 30 min. the samples are filtered under vacuum (0-50 mBar) through Whatman GF/F filters (25 mm). The tubes are rinsed with 5 ml ice-cold buffer which are then poured on the filters. Thereafter, the filters are washed with 2×5 ml of buffer. The filters are placed in counting vials and 4 ml of appropriate scintillation fluid (e.g., Picofluor™15) are added. After shaking for 1 h and storage 2 hrs in the dark the content of radioactivity is determined by liquid scintillation counting. Specific binding is obtained by subtracting the nonspecific binding in the presence of 1 μM mianserin. For determination of the inhibition of binding five concentrations of drugs covering 3 decades are used.
The IC50 value is determined as the concentration at which the binding is 50% of the total binding in control samples minus the nonspecific binding in the presence of 1 μM mianserin.

5-HT2 = biological target: T2, 5-HT2 (Rattus norvegicus, UniProt P14842); assay: quipazine inhibition (quipazine-induced head twitches in rats); format: in vivo
T2 construct: Four rats, male Wistar (Mol:Wist) SPF rats weighing 170-240 g; from tissue; host or cells: living male Wistar (Mol:Wist) SPF rats (in vivo, endogenous receptor)
Method: Quipazine is a 5-HT2 agonist, which induces head twitches in rats. The test is a test for 5-HT2 -antagonistic effect testing the ability to inhibit head twitches. The method and test results for some reference substances are published by Arnt et al. (Drug Development Research, 16, 59-70, 1989).
Test substance is injected s.c. 2 hrs before or p.o. 24 hrs before quipazine administration (6.8 mg/kg, s.c., dimaleate). Four rats, male Wistar (Mol:Wist) SPF rats weighing 170-240 g, are used at each dose level. A control group is included each test day. By repeated testing (2, 24 hrs) the control group is the same, however. After quipazine administration the rats are individually placed in the observation cages and head twitches are counted in an observation period of 30-40 min. after injection of quipazine.
Total number of head twitches in each group is calculated and the result for each dose is expressed as per cent of the response in the control group. ED50 values are calculated by log-probit analysis. The test must be repeated if the average number of head twitches is lower than 9 in the control group.

DA D-2 = biological target: T3, DA D-2 (Rattus norvegicus, UniProt P61169); assay: antagonism of pergolide-induced circling behaviour in rats with unilateral 6-OHDA lesions; format: in vivo; conditions: sc, read-out: Pergolide rot. inhibition ED50, 2h (sc), 6-OHDA lesions, s.c., 2 h before pergolide
T3 construct: Male Wistar rats (Mol:Wist) weighing about 200 g at the time of operation are used; from tissue; host or cells: living male Wistar (Mol:Wist) rats with unilateral 6-OHDA lesions (in vivo, endogenous receptor)
Method: ANTAGONISM OF PERGOLIDE-INDUCED CIRCLING BEHAVIOUR IN RATS WITH UNILATERAL 6-OHDA LESIONS
Dopamine (DA) D-2 agonists induce contralateral circling behaviour in rats with 6-OHDA lesions. Pergolide-induced circling is antagonized by DA D-2 antagonists.
Male Wistar rats (Mol:Wist) weighing about 200 g at the time of operation are used. Unilateral lesions are made in pentobarbital anaesthetized rats by injection of 6-OHDA. HCl 9.7 μg/μl (equivalent to 8 μg free base) per 4 min. into the rostral tip of the substantia nigra. The saline solution contains ascorbic acid 0.2 mg/ml, is bubbled with N2 and is kept ice-cold. The experiments are done when stable contralateral circling responses to pergolide (0.05 μmol/kg, s.c.) are obtained. The circling response is measured in rotometer bowls. Only rats showing more than 400 complete turns in 2 hrs control session are used. Dose-response curves are obtained by alternating test and control sessions on a weekly basis. The antagonists are injected s.c. 2 hrs before the agonist. The effect of individual doses of test drugs is calculated as per cent of the mean effect of control sessions one week before and one week after the test session for each rat. ED50 values are calculated by log-probit analysis. Four to eight rats are used at each dosage.

α1 adrenoceptors = assay: inhibition of 3H-prazosin binding to α1 adrenoceptors in rat brain in vitro; conditions: 3H-prazosin 0.25 nM, rat brain membranes, read-out: Binding IC50, 3H Praz.
Method: INHIBITION OF ^3 H-PRAZOSIN BINDING TO α1 ADRENOCEPTORS IN RAT BRAIN IN VITRO
Method and results in Hyttel and Larsen, J. Neurochem, 44, 1615-1622, 1985; Skarsfeldt and Hyttel, Eur. J. Pharmacol. 125, 323-340, 1986.
(§1) Male Wistar (Mol:Wist) rats (125-200 g) are sacrificed and brain tissue is dissected and weighed. The tissue is homogenized (Ultra Turrax, 10 sec.) in 10 ml of ice-cold 50 nM Tris buffer pH 7.7 (at 25° C.). The homogenate is centrifuged twice at 20,000 g for 10 min. at 4° C. with rehomogenization of the pellet in 10 ml ice-cold buffer. The final pellet is homogenized in 400 vol (w/v) ice-cold buffer.
Incubation tubes kept on ice in triplicate receive 100 μl of drug solution in water (or water for total binding) and 4000 μl of tissue suspension (final tissue content corresponds to 10 mg original tissue). The binding experiment is initiated by addition of 100 μl of ^3 H-Prazosin (final concentration 0.25 nM) and by placing the tubes in a 25° C. water bath. After incubation for 20 min. the samples are filtered under vacuum (0-50 mBar) through Whatman GF/F filters (25 mm). The tubes are rinsed with 5 ml ice-cold buffer which then are poured on the filters. Thereafter, the filters are washed with 5 ml of buffer. The filters are placed in counting vials and 4 ml of appropriate scintillation fluid (e.g. Picofluor™15) are added. After shaking for 1 h and storage 2 hrs in the dark the content of radioactivity is determined by liquid scintillation counting. Specific binding is obtained by subtracting the nonspecific binding in the presence of 1 μM of Prazosin.
(§2) For determination of the inhibition of binding five concentrations of drugs covering 3 decades are used.
The measured cpm are plotted against drug concentration on semilogarithmic paper and the best fitting S-shaped curve is drawn. The IC50 value is determined as the concentration at which the binding is 50% of the total binding in control samples minus the nonspecific binding in the presence of 1 μM of Prazosin. ^3 H-Prazosin=[furoyl-5-^3 H]-Prazosin from New England Nuclear, specific activity approximately 20 Ci/mmol.

dopamine D-2 receptors = biological target: T4, dopamine D-2 receptors (Rattus norvegicus, UniProt P61169); assay: inhibition of 3H-spiperone binding to dopamine D-2 receptors in rat corpus striatum in vitro; conditions: 3H-spiperone 0.5 nM, rat corpus striatum membranes, in vitro; read-out: Binding IC50, 3H Spi.
T4 construct: striatal tissue is dissected and weighed; from tissue; host or cells: corpus striatum membranes of male Wistar rats
Method: INHIBITION OF ^3 H-SPIPERONE BINDING TO DOPAMINE D-2 RECEPTORS IN RAT CORPUS STRIATUM IN VITRO
By this method the inhibition by drugs of the binding of ^3 H-spiperone (0.5 nM) to dopamine D-2 receptors in membranes from rat corpus striatum is determined in vitro. Method and results in Hyttel and Larsen, J. Neurochem, 44, 1615-1622, 1985).
as §1, with “(Mol:Wistar)” for “(Mol:Wist)”, “(125-250” for “(125-200”, “striatal” for “brain”, “mM K-phosphate” for “nM Tris”, “7.4” for “7.7”, “1300” for “400”
Incubation tubes kept on ice in triplicate receive 100 μl of drug solution in water (or water for total binding) and 4000 μl of tissue suspension (final tissue content corresponds to 3.08 mg original tissue). The binding experimental is initiated by addition of 100 μl of ^3 H-spiperone (final concentration 0.5 nM) and by placing the tubes in a 37° C. water bath. After incubation for 10 min. the samples are filtered under vacuum (0-50 mBar) through Whatman GF/F filters (25 mm). The tubes are rinsed with 5 ml ice-cold buffer which are then poured on the filters. Thereafter, the filters are washed with 2×5 ml of buffer. The filters are placed in counting vials and 4 ml of appropriate scintillation fluid (e.g. Picofluor ™15) are added. After shaking for 1 h and storage 2 hrs in the dark the content of radioactivity is determined by liquid scintillation counting. Specific binding is obtained by subtracting the nonspecific binding in the presence of 10 μM of 6,7-ADTN.
as §2
England, specific activity 15-25 Ci/mmol.

[2] = sc, 2 h, read-out: Quipazine inhibition ED50, 2h (sc)
[3] = po, 24 h, read-out: Quipazine inhibition ED50, 24h (po)

T1 sequence (P14842 whole entry): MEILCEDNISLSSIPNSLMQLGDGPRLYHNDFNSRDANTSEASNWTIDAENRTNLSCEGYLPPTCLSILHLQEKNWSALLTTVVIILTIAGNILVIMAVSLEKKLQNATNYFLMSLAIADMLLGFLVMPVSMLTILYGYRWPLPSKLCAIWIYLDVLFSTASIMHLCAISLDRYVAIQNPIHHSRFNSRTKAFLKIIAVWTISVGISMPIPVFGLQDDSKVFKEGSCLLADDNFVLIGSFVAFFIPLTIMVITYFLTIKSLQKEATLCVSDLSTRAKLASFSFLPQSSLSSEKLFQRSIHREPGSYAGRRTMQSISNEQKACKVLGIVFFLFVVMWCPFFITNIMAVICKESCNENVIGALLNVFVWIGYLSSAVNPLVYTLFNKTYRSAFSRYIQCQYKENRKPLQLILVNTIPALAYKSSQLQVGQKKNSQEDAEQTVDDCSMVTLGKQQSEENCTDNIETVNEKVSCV
T2 sequence (P14842 whole entry): as above
T4 sequence (P61169 whole entry): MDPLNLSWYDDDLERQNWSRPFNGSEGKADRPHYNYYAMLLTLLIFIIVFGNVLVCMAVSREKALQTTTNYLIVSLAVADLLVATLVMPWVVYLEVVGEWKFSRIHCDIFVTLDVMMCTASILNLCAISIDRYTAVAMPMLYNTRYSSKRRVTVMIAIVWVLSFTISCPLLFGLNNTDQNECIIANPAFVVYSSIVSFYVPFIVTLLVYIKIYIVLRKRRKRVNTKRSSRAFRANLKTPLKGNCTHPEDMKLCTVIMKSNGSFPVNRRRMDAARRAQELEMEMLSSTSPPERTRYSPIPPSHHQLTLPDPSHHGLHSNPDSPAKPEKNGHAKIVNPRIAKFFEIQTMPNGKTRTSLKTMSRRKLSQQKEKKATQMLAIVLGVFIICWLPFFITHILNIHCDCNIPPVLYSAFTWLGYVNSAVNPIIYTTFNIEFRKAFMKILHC
T3 sequence (P61169 whole entry): as above

Row | Compound | pIC50 [1] | ED50 (5-HT2; [2]) [µmol/kg] | ED50 (DA D-2) [µmol/kg] | ED50 (5-HT2; [3]) [µmol/kg] | pIC50 (α1 adrenoceptors) | pIC50 (dopamine D-2 receptors)
1 | O=C1NCCN1CCN1CCC(c2cn(-c3ccc(F)cc3)c3cc(Cl)ccc23)CC1 [Compound 4b, 6-chloro-1-(4-fluorophenyl)-3-[1-[2-(2-imidazolidinon-1yl)ethyl]-4-piperidyl]-1H-indole] | 8.85 | 0.06 | > 23 |  |  | 
2 | O=C1NCCN1CCN1CCC(c2cn(-c3ccc(F)cc3)c3cc(Cl)c(Cl)cc23)CC1 [Compound 5f, 5,6-dichloro-1-(4-fluorophenyl)-3-[1-[2-(2-imidazolidinon-1-yl)ethyl]-4-piperidyl]-1H-indole] | 8.46 | 0.12 | > 42 | 0.04 |  | 
3 | Cc1ccc2c(N3CCN(CCN4CCN(C(C)C)C4=O)CC3)cn(-c3ccc(F)cc3)c2c1 [Compound 6b, 1-(4-fluorophenyl)-6-methyl-3-[4-[2-[3-(2-propyl)-2-imidazolidinon-1-yl]ethyl]-1-piperazinyl]-1H-indole] | 8.57 | 0.04 |  |  | 7.12 | 6.74
4 | Cc1ccc2c(C3CCN(CCNC(=O)N(C)C)CC3)cn(-c3ccc(F)cc3)c2c1 [Compound 9b, 3-[1-[2-(3,3-dimethyl-1-ureido)-1-ethyl]-4-piperidyl]-1-(4-fluorophenyl)-6-methyl-1H-indole] | 8.59 | 0.12 |  | < 0.14 |  | 
5 | Cc1ccc2c(C3CCN(CCN4CCN(C(C)C)C4=O)CC3)cn(-c3ccccc3)c2c1 [Compound 15a] | 8.70 | 0.01 |  |  | 6.92 | 6.30
6 | Cc1ccc2c(C3CCN(CCN4CCN(C(C)C)C4=O)CC3)cn(-c3cccc(F)c3)c2c1 [Compound 15g, 1-(3-fluorophenyl)-3-[1-[2-[3-(2-propyl)-2-imidazolidinon-1-yl]ethyl]-4-piperidyl]-6-methyl-1H-indole] | 7.96 |  |  |  | 6.17 | 5.49
7 | Cc1ccc2c(C3CCN(CCN4CCN(C(C)C)C4=O)CC3)cn(-c3ccc(Cl)cc3)c2c1 [Compound 15h, 1-(4-chlorophenyl)-3-[1-[2-[3-(2-propyl)-2-imidazolidinon-1-yl]ethyl]-4-piperidyl]-6-methyl-1H-indole] | 8.22 |  |  |  | 6.35 | 6.21
8 | CC(C)N1CCN(CCN2CCC(c3cn(-c4ccccc4F)c4cc(Cl)ccc34)CC2)C1=O [Compound 15j, 6-chloro-1-(2-fluorophenyl)-3-[1-[2-[3-(2-propyl)-2-imidazolidinon-1-yl]ethyl]-4-piperidyl]-1H-indole] | 8.43 | 0.08 |  |  | 6.92 | 6.52
9 | Cc1ccc2c(c1)N(c1ccc(F)cc1)CC2C1CCN(CCN2CCN(C(C)C)C2=O)CC1 (centres unmarked) [Compound 20a, 1-(4-fluorophenyl)-6-methyl-3-[1-[2-[3-(2-propyl)-2-imidazolidinon-1-yl]ethyl]-4-piperidyl]-2,3-dihydro-1H-indole] | 8.28 | 0.49 |  |  |  | 6.74
10 | Cc1c(C2CCN(CCN3CCNC3=O)CC2)c2ccccc2n1-c1ccc(F)cc1 [Compound 24c, 1-(4-fluorophenyl)-3-[1-[2-(2-imidazolidinon-1-yl)ethyl]-4-piperidyl]-2-methyl-1H-indole] | 9.16 |  |  |  | 7.21 | 6.42
11 | CN(C)CCSc1nc2ccccc2cc1-c1ccccc1 [ICI 169369, reference compound] | 7.82 | > 3.6 |  |  | 6.52 | 6.31
